Reference: ChEMBL document CHEMBL3885881, “DrugMatrix”

Species on record: Rattus norvegicus
Test: DrugMatrix - Regimen: Daily Repeat
Type: toxicity, organism-based, Sprague-Dawley
Parameters: regimen Daily Repeat, gender Male, age 6-8 weeks
Conditions: in vivo, sc, route subcutaneous, […]; for ABSOLUTE BASOPHIL / ABSOLUTE EOSINOPHIL / ABSOLUTE LYMPHOCYTE / ABSOLUTE MONOCYTE / ABSOLUTE SEGMENTED NEUTROPHIL / BASOPHIL / EOSINOPHIL / ERYTHROCYTE COUNT / HEMATOCRIT / HEMOGLOBIN / LEUKOCYTE COUNT / LYMPHOCYTE / MEAN CORPUSCULAR HEMOGLOBIN / MEAN CORPUSCULAR HEMOGLOBIN CONCENTRATION / MEAN CORPUSCULAR VOLUME / MONOCYTE / NEUTROPHIL / NUCLEATED RED BLOOD CELLS / PLATELET COUNT: tissue Blood; for ALANINE AMINOTRANSFERASE / ALBUMIN / ALKALINE PHOSPHATASE / ASPARTATE AMINOTRANSFERASE / BLOOD UREA NITROGEN / CARBON DIOXIDE / CHLORIDE / CHOLESTEROL / CREATINE PHOSPHOKINASE / CREATININE / GLUCOSE / LACTATE DEHYDROGENASE / LIPASE / PHOSPHORUS / POTASSIUM / SODIUM / TOTAL BILIRUBIN / TOTAL PROTEIN / URIC ACID: tissue Plasma
[1] = 56 mg/kg, 120 h, dose level M1, time 5 day
[2] = 72 h, dose 5.6 mg/Kg, dose level Low, time 3 day
[3] = 120 h, dose 5.6 mg/Kg, dose level Low, time 5 day

SMILES: O=C(Nc1ccc(Br)cc1)c1cc(Br)cc(Br)c1O [TRIBROMSALAN]
- ABSOLUTE BASOPHIL [1]: 0 CELLS/uL
- ABSOLUTE EOSINOPHIL [1]: 183 CELLS/uL
- ABSOLUTE LYMPHOCYTE [1]: 10057 CELLS/uL
- ABSOLUTE MONOCYTE [1]: 145 CELLS/uL
- ABSOLUTE SEGMENTED NEUTROPHIL [1]: 1315 CELLS/uL
- BASOPHIL [1]: 0%
- EOSINOPHIL [1]: 1%
- ERYTHROCYTE COUNT [1]: 5.63 x10E6/uL
- HEMATOCRIT [1]: 34.6%
- HEMOGLOBIN [1]: 12.83 G/DL
- LEUKOCYTE COUNT [1]: 11.7 x10E3/uL
- LYMPHOCYTE [1]: 86.33%
- MEAN CORPUSCULAR HEMOGLOBIN [1]: 22.8 pg
- MEAN CORPUSCULAR HEMOGLOBIN CONCENTRATION [1]: 37.1 G/DL
- MEAN CORPUSCULAR VOLUME [1]: 61.47 fL
- MONOCYTE [1]: 1.33%
- NEUTROPHIL [1]: 11.33%
- NUCLEATED RED BLOOD CELLS [1]: 0 /100WBC
- PLATELET COUNT [1]: 1090 x10E3/uL
- ALANINE AMINOTRANSFERASE [1]: 51 u/L
- ALBUMIN [1]: 3.77 G/DL
- ALKALINE PHOSPHATASE [1]: 376.33 u/L
- ASPARTATE AMINOTRANSFERASE [1]: 90 u/L
- BLOOD UREA NITROGEN [1]: 16 mg/dL
- CARBON DIOXIDE [1]: 24 mmol/L
- CHLORIDE [1]: 99 MEQ/L
- CHOLESTEROL [1]: 81.33 mg/dL
- CREATINE PHOSPHOKINASE [1]: 578.33 u/L
- CREATININE [1]: 0.19 mg/dL
- GLUCOSE [1]: 142 mg/dL
- LACTATE DEHYDROGENASE [1]: 171.33 u/L
- LIPASE [1]: 7.33 u/L
- PHOSPHORUS [1]: 11.13 mg/dL
- POTASSIUM [1]: 6.14 MEQ/L
- SODIUM [1]: 146.5 MEQ/L
- TOTAL BILIRUBIN [1]: 0.23 mg/dL
- TOTAL PROTEIN [1]: 6.23 G/DL
- URIC ACID [1]: 1.13 mg/dL
- ABSOLUTE BASOPHIL [2]: 0 CELLS/uL
- ABSOLUTE EOSINOPHIL [2]: 0 CELLS/uL
- ABSOLUTE LYMPHOCYTE [2]: 7670 CELLS/uL
- ABSOLUTE MONOCYTE [2]: 0 CELLS/uL
- ABSOLUTE SEGMENTED NEUTROPHIL [2]: 730 CELLS/uL
- BASOPHIL [2]: 0%
- EOSINOPHIL [2]: 0%
- ERYTHROCYTE COUNT [2]: 4.92 x10E6/uL
- HEMATOCRIT [2]: 32.37%
- HEMOGLOBIN [2]: 12.33 G/DL
- LEUKOCYTE COUNT [2]: 8.4 x10E3/uL
- LYMPHOCYTE [2]: 91.67%
- MEAN CORPUSCULAR HEMOGLOBIN [2]: 25.1 pg
- MEAN CORPUSCULAR HEMOGLOBIN CONCENTRATION [2]: 38.13 G/DL
- MEAN CORPUSCULAR VOLUME [2]: 65.77 fL
- MONOCYTE [2]: 0%
- NEUTROPHIL [2]: 8.33%
- NUCLEATED RED BLOOD CELLS [2]: 0 /100WBC
- PLATELET COUNT [2]: 800.67 x10E3/uL
- ALANINE AMINOTRANSFERASE [2]: 47.33 u/L
- ALBUMIN [2]: 4.3 G/DL
- ALKALINE PHOSPHATASE [2]: 403.67 u/L
- ASPARTATE AMINOTRANSFERASE [2]: 74.33 u/L
- BLOOD UREA NITROGEN [2]: 15.33 mg/dL
- CARBON DIOXIDE [2]: 24.33 mmol/L
- CHLORIDE [2]: 101.67 MEQ/L
- CHOLESTEROL [2]: 72.33 mg/dL
- CREATINE PHOSPHOKINASE [2]: 270.67 u/L
- CREATININE [2]: 0.18 mg/dL
- GLUCOSE [2]: 163 mg/dL
- LACTATE DEHYDROGENASE [2]: 143 u/L
- LIPASE [2]: 8.33 u/L
- PHOSPHORUS [2]: 13.13 mg/dL
- POTASSIUM [2]: 6.25 MEQ/L
- SODIUM [2]: 144.7 MEQ/L
- TOTAL BILIRUBIN [2]: 0.3 mg/dL
- TOTAL PROTEIN [2]: 5.97 G/DL
- URIC ACID [2]: 2.13 mg/dL
- ABSOLUTE BASOPHIL [3]: 0 CELLS/uL
- ABSOLUTE EOSINOPHIL [3]: 126 CELLS/uL
- ABSOLUTE LYMPHOCYTE [3]: 12819 CELLS/uL
- ABSOLUTE MONOCYTE [3]: 78 CELLS/uL
- ABSOLUTE SEGMENTED NEUTROPHIL [3]: 1743.67 CELLS/uL
- BASOPHIL [3]: 0%
- EOSINOPHIL [3]: 0.67%
- ERYTHROCYTE COUNT [3]: 5.88 x10E6/uL
- HEMATOCRIT [3]: 36.87%
- HEMOGLOBIN [3]: 13.53 G/DL
- LEUKOCYTE COUNT [3]: 14.77 x10E3/uL
- LYMPHOCYTE [3]: 87%
- MEAN CORPUSCULAR HEMOGLOBIN [3]: 23.07 pg
- MEAN CORPUSCULAR HEMOGLOBIN CONCENTRATION [3]: 36.77 G/DL
- MEAN CORPUSCULAR VOLUME [3]: 62.77 fL
- MONOCYTE [3]: 0.67%
- NEUTROPHIL [3]: 11.67%
- NUCLEATED RED BLOOD CELLS [3]: 0 /100WBC
- PLATELET COUNT [3]: 1236 x10E3/uL
- ALANINE AMINOTRANSFERASE [3]: 46.33 u/L
- ALBUMIN [3]: 4 G/DL
- ALKALINE PHOSPHATASE [3]: 354.67 u/L
- ASPARTATE AMINOTRANSFERASE [3]: 82.33 u/L
- BLOOD UREA NITROGEN [3]: 17.67 mg/dL
- CARBON DIOXIDE [3]: 27.33 mmol/L
- CHLORIDE [3]: 101.67 MEQ/L
- CHOLESTEROL [3]: 65.33 mg/dL
- CREATINE PHOSPHOKINASE [3]: 261.33 u/L
- CREATININE [3]: 0.2 mg/dL
- GLUCOSE [3]: 152.67 mg/dL
- LACTATE DEHYDROGENASE [3]: 145.67 u/L
- LIPASE [3]: 8 u/L
- PHOSPHORUS [3]: 11.87 mg/dL
- POTASSIUM [3]: 6.3 MEQ/L
- SODIUM [3]: 145.97 MEQ/L
- TOTAL BILIRUBIN [3]: 0.13 mg/dL
- TOTAL PROTEIN [3]: 5.97 G/DL
- URIC ACID [3]: 1.5 mg/dL
